Results taken from US9839632B2, “Methods and compositions using 4-amino-2-(2,6-dioxo-piperidine-3-yl)-isoindoline-1,3-dione for treatment and management of central nervous system cancers” (CELGENE CORPORATION, priority 2013, dated 2017).
Like-named read-outs stand apart in the source and are kept apart here.

Assay: Blood and brain microdialysis (unbound concentrations) in male CD-IGS rats after single p.o. administration
Assay type: in vivo, rat
Conditions: for Kp / Tmax: rat
Text: Microdialysis: A total of 3 male CD-IGS rats were used. Stomach-cannulated CD-IGS rats (male, weight range: 250-300 g) supplied by Charles River Laboratories were used in this study. Following surgery, all animals were housed in BASi Raturn® containment systems with standard bedding material. Rat chow and water were available ad libitum, and all animals were kept in an ambient temperature room under a 6 am to 6 pm 12-hour lighting schedule.
Animal surgeries consisted of implanting a CMA/20 14/10PC vascular microdialysis probe (Part #8309571, CMA Microdialysis, North Chelmsford, Mass.) in the jugular vein, according to an IACUC protocol. Each animal was then stereotaxically implanted with an intracerebral guide directed toward the top of the striatum (A/P: 0.7, L/M: −3.0, DN: −3.0; from bregma), according to a rat stereotaxic atlas. Paxinos G. F. K., The mouse brain in stereotaxic coordinates (Academic Press, San Diego, Calif.) (2001). A BASi BR-4 brain microdialysis probe (Part # MD-2204, BASi, West Lafayette, Ind.) was inserted prior to recovery, and the probes were slowly perfused (0.5 μL/min) with either sterile lactated Ringer's (brain) or Dulbecco's phosphate-buffered saline (D-PBS; blood). Animals were allowed to recover for at least 24 hours prior to dosing. On the day of dosing, the blank perfusate was replaced with perfusate containing the probe calibrator, and flow was set to 1.25 μl/min. 4-amino-2-(2,6-dioxo-piperidine-3-yl)-isoindoline-1,3-dione was administered as a single p.o. administration via the stomach cannula, at 50 mg/kg (5 mL/kg) in a 0.5% A carboxymethylcellulose/0.25% Tween® 80 suspension formulation.
Microdialysate was collected in a cooling fraction collector, set at 4° C. (Eicom # EFC-82, EFR-82, Eicom, San Diego, Calif.) at intervals of 25 minutes for 10 hours after dosing. To calculate area-under-the-curve (AUC), the corrected concentration of each sample was multiplied by the interval over which the sample was collected; in this case 25 minutes, and divided by 60 minutes per hour. The sum of these values represented the total AUC value over the specified time range. To generate graphs, the concentration at each time point was plotted at the mid-point of each collection interval. Microdialysates were collected at the specified time points and analyzed for 4-amino-2-(2,6-dioxo-piperidine-3-yl)-isoindoline-1,3-dione concentration using a liquid chromatography-tandem mass spectrometry (LC-MS/MS) assay, within 12 hours. Interim storage was at 4° C.
Mass Spectral Analysis: Microdialysate samples were injected directly into the LC-MS/MS system without processing. Chromatographic separation was achieved using a Phenomenex Synergi C18 column (50×4.6 mm, 4 μm) with gradient elution of 0.1% formic acid in water and 0.1% formic acid in acetonitrile. Detection and quantitation were performed using positive electrospray in multiple reaction-monitoring (“MRM”) modes on a Waters Micromass Ultima tandem mass spectrometer. Transition ions monitored were m/z 274.1 to m/z 84.3 for the analyte and m/z 288.0 to m/z 98.0 for the probe calibrator CC-6032. Calibration was performed using weighted (1/x^2) quadratic regression of peak area. Two calibration curves for 4-amino-2-(2,6-dioxo-piperidine-3-yl)-isoindoline-1,3-dione in PBS and lactated ringers solution were constructed using standards at concentrations of 1.28, 2.56, 5.12, 10.2, 25.6, 64.0, 160, 400, 1000, and 2000 ng/mL. A quadratic regression model with a weighting of 1/(x^2) was used for the regression of calibration curves. Concentrations below the limit of quantitation (“BLOQ”) were treated as zero for calculations.

[1] = microdialysis, male CD-IGS rats, single p.o. 50 mg/kg, n = 3, listed as 4-amino-2-(2,6-dioxo-piperidine-3-yl)-isoindoline-1,3-dione, 50 mg/kg
[2] = microdialysis, male CD-IGS rats, single p.o. 50 mg/kg, n = 3, listed as pomalidomide, 50 mg/kg

Nc1cccc2c1C(=O)N(C1CCC(=O)NC1=O)C2=O (centres unmarked) [Pomalidomide, 4-amino-2-(2,6-dioxo-piperidine-3-yl)-isoindoline-1,3-dione]
Kp (male, CD-IGS, oral, 50 mg/kg, crossed the blood brain barrier, rats, read-out: CNS penetration): ~0.39 | AUC(0-10), unbound, Brain [1]: 2.7 ± 0.74 µg·h/mL | Cmax, unbound, Brain [1]: 0.43 ± 0.063 µg/mL | AUC ratio Brain:Blood (unbound) [2]: 0.39 ± 0.03 | AUC(0-10), unbound, Blood [2]: 6.8 ± 2 µg·h/mL | AUC(0-10), unbound, Brain [2]: 2.7 ± 0.74 µg·h/mL | Cmax, unbound, Blood [2]: 1.1 ± 0.082 µg/mL | Cmax, unbound, Brain [2]: 0.43 ± 0.063 µg/mL | Tmax (blood (jugular vein) microdialysate, po, microdialysis, male CD-IGS rats, single p.o. 50 mg/kg, n = 3, read-out: Tmax, unbound, Blood): 4.6 ± 2.4 h | Tmax (brain (striatum) microdialysate, po, microdialysis, male CD-IGS rats, single p.o. 50 mg/kg, n = 3, read-out: Tmax, unbound, Brain): 4.1 ± 1.5 h | Kp (po, microdialysis, male CD-IGS rats, single p.o. 50 mg/kg, n = 3, read-out: AUC ratio Brain:Blood (unbound)): 0.39 ± 0.03
